For 3 molecules, Ki results are on record in patent publication US12435071B2, “Bryostatin compounds and methods of preparing the same” (priority 2016, dated 2025).

Like-named read-outs stand apart in the source and are kept apart here.

Assay [1] has as its target T1, PKC beta-I (Homo sapiens, UniProt P05771).
T1 construct: purchased Invitrogen
The experiment in a line: PKC binding assay, competition with 3H-PDBu (glass-fiber filtration). The protocol:
(§1) This procedure entails a glass-fiber filtration method to determine bound radioligand. PKC-beta-I and PKC-delta were selected for preliminary evaluation. The former is a member of the conventional PKC subfamily while the latter is a member of the novel PKC sub-family (A. C. Newton. Protein Kinase C: Structure, Function, and Regulation. J. Biol. Chem. 270, 28495-28498 (1995)).
(§2) To a 50 mL polypropylene tube was added Tris-HCl (pH 7.4, 1 M, 1 mL), KCl (1 M, 2 mL), CaCl2 (0.1 M, 30 μL), and bovine serum albumin (40 mg, Sigma-Aldrich). This mixture was diluted to 20 mL with deionized H2O and mixed gently. The buffer was stored on ice until use.
(§3) For every two assays, 3.5 mg phosphatidylserine (Avanti Polar Lipids, porcine, 25 mg/mL CHCl3 solution) was concentrated by removing chloroform under a stream of nitrogen followed by reduced pressure. The solid P S was suspended as vesicles in freshly prepared PKC binding assay buffer (3.5 mL) by sonicating six times for 30 sec, with a 30 sec rest between sonications (Branson Sonifier 250, power=2, 50% duty cycle). The resulting milky cloudy mixture (1 mg/mL) was stored on ice until use.
(§4) Assay PKC was prepared by dissolving a 4 μg aliquot of the indicated recombinant human PKC isoform (Invitrogen) into 11.6 mL of PKC binding assay buffer (this amount is sufficient for two assays). The diluted PKC was stored on ice for immediate use.
(§5) The resulting 500 nM stock solution was further diluted with DMSO to 30 nM.
(§6) Compound dilutions were prepared by serially diluting from a chosen “high” concentration by factors of 3 or 4. For each analog compound, seven concentrations were used to define the inhibition curve (i.e. for exocyclic alkene 34, the analog concentrations used were 3000 nM, 750 nM, 188 nM, 46.9 nM, 11.7 nM, 2.93 nM, and 0.73 nM).
(§7) The resulting solution was vortexed to mix and stored on ice.
(§8) • Glass-fiber filters (Whatman GF/B) were prepared by soaking them in a solution of aqueous polyethyleneimine (10% by vol, 18 mL) in deionized water (600 mL) for >1 h. • 500 mL “rinsing buffer” of 20 mM Tris, pH 7.4 was cooled on ice for the duration of the incubation period and for the remainder of the assay.
(§9) Triplicate data points were obtained for each analog concentration. […]
(§10) The resulting filters had circular perforations for each data point, which were removed with forceps and placed in a scintillation vial. Scintillation vials were filled with Bio-Safe II scintillation fluid (5 mL) and measured for radioactivity using a Beckman LS 6000SC scintillation counter. […] The data were plotted—cpm vs. log(concentration)—using Prism® by GraphPad Software and an IC50 was determined using that program's built-in one-site competition least squares regression function.

Assay [2] deals with T2, PKC delta (Homo sapiens, UniProt Q05655).
T2 construct: purchased Invitrogen
The description is as above. The following applies: recombinant human PKC isoform, parentheses = 95% confidence interval. The protocol:
as §1, §2, §3, §4, §5, §6, §7, §8, §9, §10

[3] abbreviates: recombinant human PKC isoform, competition with 3H-PDBu, parentheses = 95% confidence interval, read-out: PKC Ki (nM) beta-1.

T1 sequence (P05771 whole entry): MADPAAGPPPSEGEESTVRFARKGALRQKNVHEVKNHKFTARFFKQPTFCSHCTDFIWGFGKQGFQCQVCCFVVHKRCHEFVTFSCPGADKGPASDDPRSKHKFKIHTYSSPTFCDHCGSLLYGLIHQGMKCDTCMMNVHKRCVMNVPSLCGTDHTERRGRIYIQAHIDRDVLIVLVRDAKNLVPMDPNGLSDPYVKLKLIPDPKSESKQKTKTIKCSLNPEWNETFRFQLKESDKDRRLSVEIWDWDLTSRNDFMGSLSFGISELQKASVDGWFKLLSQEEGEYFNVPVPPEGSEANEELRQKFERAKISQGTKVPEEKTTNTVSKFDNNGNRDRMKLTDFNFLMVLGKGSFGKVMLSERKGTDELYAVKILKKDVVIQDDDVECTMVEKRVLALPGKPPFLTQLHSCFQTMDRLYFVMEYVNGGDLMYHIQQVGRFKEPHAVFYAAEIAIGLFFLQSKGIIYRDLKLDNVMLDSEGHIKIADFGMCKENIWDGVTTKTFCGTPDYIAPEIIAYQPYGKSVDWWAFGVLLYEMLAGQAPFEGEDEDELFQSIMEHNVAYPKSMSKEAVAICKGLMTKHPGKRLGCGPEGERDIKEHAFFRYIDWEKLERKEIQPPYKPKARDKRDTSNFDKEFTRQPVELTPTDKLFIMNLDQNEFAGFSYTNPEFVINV
T2 sequence (Q05655 whole entry): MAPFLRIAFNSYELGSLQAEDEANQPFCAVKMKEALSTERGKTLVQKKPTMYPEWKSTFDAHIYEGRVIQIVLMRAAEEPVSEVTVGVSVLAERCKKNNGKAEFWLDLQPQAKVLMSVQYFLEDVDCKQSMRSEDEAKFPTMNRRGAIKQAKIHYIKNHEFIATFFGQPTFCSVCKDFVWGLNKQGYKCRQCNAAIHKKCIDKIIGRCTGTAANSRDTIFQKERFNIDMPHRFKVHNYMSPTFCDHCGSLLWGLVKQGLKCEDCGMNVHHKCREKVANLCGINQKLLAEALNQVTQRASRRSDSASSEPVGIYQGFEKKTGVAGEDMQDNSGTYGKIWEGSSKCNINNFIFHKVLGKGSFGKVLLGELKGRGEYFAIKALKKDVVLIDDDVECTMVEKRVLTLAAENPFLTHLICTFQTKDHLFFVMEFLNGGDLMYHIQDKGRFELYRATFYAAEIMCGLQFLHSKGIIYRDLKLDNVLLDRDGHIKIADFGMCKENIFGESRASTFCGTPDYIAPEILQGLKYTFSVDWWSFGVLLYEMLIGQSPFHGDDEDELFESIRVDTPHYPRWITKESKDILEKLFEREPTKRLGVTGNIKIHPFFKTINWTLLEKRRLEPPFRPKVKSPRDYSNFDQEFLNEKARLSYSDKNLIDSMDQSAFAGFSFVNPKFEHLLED

`CCC/C=C/C=C/C(=O)O[C@H]1/C(=C/C(=O)OC)C[C@H]2CC([C@@H](C)O)OC(=O)C[C@@H](O)C[C@@H]3C[C@H](OC(C)=O)C(C)(C)[C@](O)(C[C@@H]4C/C(=C\C(=O)OC)C[C@H](/C=C/C(C)(C)[C@]1(O)O2)O4)O3` (stereo partly shown) [(E)-enoate 35] yielded a Ki in assay [1] of 12 nM. As to `C=C1C[C@H]2C[C@]3(O)O[C@H](C[C@H](O)CC(=O)OC([C@@H](C)O)C[C@@H]4C/C(=C\C(=O)OC)[C@H](OC(=O)C#CCCCCC)[C@@](O)(O4)C(C)(C)/C=C/[C@@H](C1)O2)C[C@H](OC(C)=O)C3(C)C` (stereo partly shown) [alkene 34], the Ki in assay [1] (setting [3]) was determined as 3.9 nM; in assay [2], 0.76 nM. Consider `CCC/C=C/C=C/C(=O)O[C@H]1/C(=C/C(=O)OC)C[C@H]2C[C@H]([C@@H](C)O)OC(=O)C[C@H](O)C[C@@H]3C[C@H](OC(C)=O)C(C)(C)[C@](O)(C[C@@H]4C/C(=C/C(=O)OC)C[C@H](/C=C/C(C)(C)[C@]1(O)O2)O4)O3` [bryostatin 1, reference compound], for which, in assay [1] (setting [3]), the Ki is 1.6 nM.
